Starred links: 1 amine or outer side, 2 acyl side, 3 side chain; linkers in the order of their positions; H or OH if unused. Non-standard residues stand in square brackets, D forms with d. Residues, ends and D or L forms follow the SMILES beside them. *: point of attachment. Dolaproine = CO[C@@H]([C@@H]1CCCN1)[C@@H](C)C(=O)O; Hexanoyl(6-maleimido) = O=C1C=CC(=O)N1CCCCCC(=O)*; Dil = CC[C@H](C)[C@H](NC)[C@@H](CC(=O)O)OC; PABC = O=C(OCc1ccc(N[*:1])cc1)[*:2]; X1 = C[C@@H](N*)[C@@H](O)c1ccccc1; Cit = NC(=O)NCCC[C@H](N)C(=O)O; NMeV = CN[C@H](C(=O)O)C(C)C
Columns and labels:
[1] = test system: PSMA-positive cell line LNCaP-C4.2; test: In vitro cytotoxicity, PSMA-positive cell line; assay type: cell-based, human; details: for % efficacy: at the highest concentration tested (~100 nM)
[2] = test system: 5T4-positive cell line MDA-MB-468; test: In vitro cytotoxicity, 5T4-positive cell line; assay type: cell-based, human; details: anti-5T4-vc-seco-DUBA ADCs
Description: The potencies of the engineered anti-5T4 ADCs were equal to the conventionally linked ADC H8-wt on 5T4-expressing MDA-MB-468 cells (IC50 between 0.07 and 0.09 nM, Table 6).

Structure (SMILES) | IC50 ([1]; anti-PSMA-vc-MMAE ADCs) | % efficacy ([1]; anti-PSMA-vc-MMAE ADCs) | % efficacy ([1]; anti-PSMA-vc-seco-DUBA ADCs) | IC50 ([1]; anti-PSMA-vc-seco-DUBA ADCs, based on drug equivalents) | IC50 [2] | % efficacy ([2]; at the highest concentration tested (~100 nM))
CC[C@H](C)[C@@H]([C@@H](CC(=O)N1CCC[C@H]1[C@H](OC)[C@@H](C)C(=O)N[C@H](C)[C@@H](O)c1ccccc1)OC)N(C)C(=O)[C@@H](NC(=O)[C@H](C(C)C)N(C)C(=O)OCc1ccc(NC(=O)[C@H](CCCNC(N)=O)NC(=O)[C@@H](NC(=O)CCCCCN2C(=O)C=CC2=O)C(C)C)cc1)C(C)C [Free linker drug (vc-MMAE), vc-MMAE] ({Hexanoyl(6-maleimido)}-V[Cit][PABC][NMeV]V[Dil][Dolaproine]-X1) | 0.23 nM | 94% |  |  |  | 
Cc1cccc2c(OC(=O)N(CCOCCO)CCN(C)C(=O)OCc3ccc(NC(=O)[C@H](CCCNC(N)=O)NC(=O)[C@@H](NC(=O)OCCOCCN4C(=O)C=CC4=O)C(C)C)cc3)cc3c(c12)[C@H](CCl)CN3C(=O)c1cn2cc(NC(=O)c3ccc(O)cc3)ccc2n1 [Free linker drug, vc-seco-DUBA] |  |  | 98% | 0.02 nM | 0.02 nM | 94%

Reference: patent publication US11104968B2, “Site-specific conjugation of linker drugs to antibodies and resulting ADCS” (Byondis B.V., priority 2014, dated 2021)
